Measured values: paper PMC11079024, “Identification of a family of species-selective complex I inhibitors as potential anthelmintics” (Nature Communications, 2024)
Read-outs that look alike come from different tables or passages of the source.

Experiments:
[1] = system: ben-1 mutant (ECA882) C. elegans; experiment: microbe, parasite or virus in culture; conditions: Caenorhabditis elegans; for viability at 1 µM / viability at 2 µM / viability at 3.9 µM / viability at 15.6 µM / viability at 31.3 µM / viability at 62.5 µM / viability at 125 µM / viability at 250 µM / viability at 500 µM / viability at 1000 µM: read-out: C. elegans ben-1(e1880) development/viability
Method in brief: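 L1 larvae (~2 worms/μL in M9) in liquid NGM with 2-fold concentrated E. coli HB101, compound at 1% DMSO, 6 days at 20 °C shaking 165 rpm. Well images scored as summed worm-associated pixels, normalized to DMSO controls; relative viability averaged over at least three biological replicates.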

L1 wild-type C. elegans [2] = system: L1 wild-type C. elegans
in vitro = conditions: human; for viability at 2 days, 3.13 µM / viability at 2 days, 6.25 µM / viability at 2 days, 12.5 µM / viability at 2 days, 25 µM / viability at 2 days, 50 µM / viability at 2 days, 100 µM: HEK293 cells (Flp-In-293), HEK293 viability
L1 wild-type C. elegans [3] = experiment: microbe, parasite or virus in culture; conditions: Caenorhabditis elegans, read-out: C. elegans KCN Survival Assay LC50, estimated from fitted dose-response curves; mean of at least two biological replicates
[4] = read-out: C. elegans (ben-1) Development & Viability Assay LC50
[5] = read-out: C. elegans ben-1 log10 LC50 (converted)
[6] = 50 μM, KCN survival assay, hit = relative motility below 0.25
[7] = Dose 0.2 µM, mean of at least three biological replicates
[8] = HEK293 Cell Viability Assay LC50, HEK293 cells, estimated from fitted dose-response curves
[9] = 50 μM, hit = relative motility below 0.25 3 hours after removal of KCN
[10] = 50 μM compound, hit = relative motility below 0.25 3 hours after removal of KCN
[11] = HEK293 Cell Viability Assay LC50, HEK293 cells, estimated from fitted dose-response curves, mean of at least two biological replicates
[12] = read-out: C. elegans ben-1 LC50

Row | SMILES | LC50 [1, 4] [µM] | LC50 [1, 5] [µM] | Screen "Hit" (L1 wild-type C. elegans [2]; [6]) | C. elegans KCN Survival (L1 wild-type C. elegans [2]; [7]) | C. elegans KCN Survival (L1 wild-type C. elegans [2]; Dose 0.39 µM) | C. elegans KCN Survival (L1 wild-type C. elegans [2]; Dose 1.56 µM) | C. elegans KCN Survival (L1 wild-type C. elegans [2]; Dose 3.13 µM) | C. elegans KCN Survival (L1 wild-type C. elegans [2]; Dose 6.25 µM) | C. elegans KCN Survival (L1 wild-type C. elegans [2]; Dose 12.5 µM) | C. elegans KCN Survival (L1 wild-type C. elegans [2]; Dose 25 µM) | C. elegans KCN Survival (L1 wild-type C. elegans [2]; Dose 50 µM) | C. elegans KCN Survival (L1 wild-type C. elegans [2]; Dose 100 µM) | viability at 2 days, 3.13 µM (in vitro) [%] | viability at 2 days, 6.25 µM (in vitro) [%] | viability at 2 days, 12.5 µM (in vitro) [%] | viability at 2 days, 25 µM (in vitro) [%] | viability at 2 days, 50 µM (in vitro) [%] | viability at 2 days, 100 µM (in vitro) [%] | LC50 (L1 wild-type C. elegans [3]) [µM] | viability at 15.6 µM [1] [%] | other results
1 | Clc1ccc(Cn2cnc3ccccc32)cc1Cl [Compound 5571325] | 69.5 | 69.5 | Y (hits were identified as compounds that reduced relative motility below 0.25 (75% reduction)) | 1.000 | 0.996 | 1.008 | 0.957 | 0.819 | 0.586 | 0.133 | 0.122 | 0.206 | 73.5 | 52.9 | 49.8 | 60.7 | 57.7 | 16.3 | 13.1 |  | CC50 at 2 days (in vitro; [8]): 86.4 µM
2 | Cc1ccc(C(C)C)c(OCC(O)Cn2cnc3ccccc32)c1 (stereo not shown) [Compound 6093301] | 366 | 366 |  | 1.001 | 1.016 | 1.025 | 0.981 | 0.940 | 0.855 | 0.337 | 0.161 | 0.196 | 90.1 | 92.9 | 85.6 | 32.4 | 7.3 | 7.2 | 19.8 | 96.4 | viability at 1 µM [1]: 94.1%; viability at 2 µM [1]: 98.7%; viability at 3.9 µM [1]: 95.9%; viability at 31.3 µM [1]: 97.2%; viability at 62.5 µM [1]: 83.6%; viability at 125 µM [1]: 88.1%; viability at 250 µM [1]: 88.4%; viability at 500 µM [1]: 12.5%; viability at 1000 µM [1]: 4.7%; Screen "Hit" (L1 wild-type C. elegans [2]; [9]): Y (hits were identified as compounds that reduced relative motility below 0.25 (75% reduction)); CC50 at 2 days (in vitro): 21.8 µM
3 | CCn1c(C(C)c2ccc(CC(C)C)cc2)nc2ccccc21 (stereo not shown) [STK951902] | 644 | 644 |  |  |  |  |  |  |  |  |  |  |  |  |  |  |  |  | 8.7 |  | Screen "Hit" (L1 wild-type C. elegans [2]; [10]): Y (hits were identified as compounds that reduced relative motility below 0.25 (75% reduction)); CC50 at 2 days (in vitro; [11]): 31.7 µM
4 | Cc1nc2ccccc2n1CCOc1ccccc1 [Compound 5550112] | > 1000 | > 500 |  | 0.995 | 1.044 | 1.038 | 1.021 | 1.008 | 0.918 | 0.699 | 0.269 | 0.187 | 100 | 98.3 | 99.1 | 100 | 100 | 100 | 32.9 | 97.1 | viability at 1 µM [1]: 99.2%; viability at 2 µM [1]: 100%; viability at 3.9 µM [1]: 96.9%; viability at 31.3 µM [1]: 92.9%; viability at 62.5 µM [1]: 100%; viability at 125 µM [1]: 93.6%; viability at 250 µM [1]: 86.4%; viability at 500 µM [1]: 91.2%; viability at 1000 µM [1]: 92.4%; LC50 [1, 12]: > 500 µM; Screen "Hit" (L1 wild-type C. elegans [2]; [9]): Y (hits were identified as compounds that reduced relative motility below 0.25 (75% reduction)); CC50 at 2 days (in vitro; [8]): > 100 µM
5 | FC(F)(F)c1cccc(OCCCCn2cnc3ccccc32)c1 [Compound 7925004] | 47.3 | 47.3 | Y (hits were identified as compounds that reduced relative motility below 0.25 (75% reduction)) | 1.053 | 1.068 | 1.004 | 1.026 | 0.948 | 0.632 | 0.094 | 0.092 | 0.126 | 99.3 | 99.5 | 100 | 61.3 | 16.2 | 6.8 | 13.9 | 76.5 | viability at 1 µM [1]: 93.7%; viability at 2 µM [1]: 95.4%; viability at 3.9 µM [1]: 96.9%; viability at 31.3 µM [1]: 75.3%; viability at 62.5 µM [1]: 28%; viability at 125 µM [1]: 3.4%; viability at 250 µM [1]: 2.3%; viability at 500 µM [1]: 2.6%; viability at 1000 µM [1]: 1.1%; CC50 at 2 days (in vitro): 29.2 µM
6 | C=CCn1c(-c2ccc(N(C)C)cc2)nc2ccccc21 [Compound 6873298] | 40.6 | 40.6 | Y (hits were identified as compounds that reduced relative motility below 0.25 (75% reduction)) |  |  |  |  |  |  |  |  |  |  |  |  |  |  |  | 5.19 |  | CC50 at 2 days (in vitro; [11]): 65.3 µM
7 | Clc1ccccc1OCCCCn1cnc2ccccc21 [Compound 7925804] | 49.2 | 49.2 | Y (hits were identified as compounds that reduced relative motility below 0.25 (75% reduction)) | 1.043 | 1.064 | 1.052 | 1.018 | 0.644 | 0.155 | 0.142 | 0.136 | 0.181 | 100 | 99.5 | 97.9 | 73.8 | 40.2 | 8 | 6.97 | 79 | viability at 1 µM [1]: 91.8%; viability at 2 µM [1]: 87.2%; viability at 3.9 µM [1]: 83.7%; viability at 31.3 µM [1]: 79.6%; viability at 62.5 µM [1]: 18.3%; viability at 125 µM [1]: 6.8%; viability at 250 µM [1]: 4.1%; viability at 500 µM [1]: 3.2%; viability at 1000 µM [1]: 3.8%; CC50 at 2 days (in vitro; [11]): 40.2 µM
8 | Cc1ccc(OCCn2cnc3ccccc32)cc1 [Compound 5671538] | > 1000 | > 500 |  | 0.927 | 0.931 | 0.891 | 0.844 | 0.828 | 0.784 | 0.550 | 0.033 | 0.00256 | 92.2 | 98.5 | 97.1 | 96.2 | 96.4 | 61.4 | 28.3 | 100 | viability at 31.3 µM [1]: 100%; viability at 62.5 µM [1]: 100%; viability at 125 µM [1]: 100%; viability at 250 µM [1]: 100%; viability at 500 µM [1]: 100%; viability at 1000 µM [1]: 100%; LC50 [1, 12]: > 500 µM; Screen "Hit" (L1 wild-type C. elegans [2]; [9]): Y (hits were identified as compounds that reduced relative motility below 0.25 (75% reduction)); CC50 at 2 days (in vitro; [8]): > 100 µM
9 | Cc1ccc(Cn2c(C(C)C)nc3ccccc32)cc1 [Compound 6586153] | 419 | 419 | Y (hits were identified as compounds that reduced relative motility below 0.25 (75% reduction)) |  |  |  |  |  |  |  |  |  |  |  |  |  |  |  | 24.9 |  | CC50 at 2 days (in vitro; [8]): > 100 µM
10 | Cc1nc2ccccc2n1Cc1ccccc1Cl [Compound 6707368] | 135 | 135 | Y (hits were identified as compounds that reduced relative motility below 0.25 (75% reduction)) |  |  |  |  |  |  |  |  |  |  |  |  |  |  |  | 8.24 |  | CC50 at 2 days (in vitro): > 100 µM
11 | C=CCn1c(C(C)c2ccc(CC(C)C)cc2)nc2ccccc21 (stereo not shown) [STL020755] | 285 | 284 |  |  |  |  |  |  |  |  |  |  |  |  |  |  |  |  | 9.97 |  | Screen "Hit" (L1 wild-type C. elegans [2]; [10]): Y (hits were identified as compounds that reduced relative motility below 0.25 (75% reduction)); CC50 at 2 days (in vitro; [11]): 49.5 µM
12 | c1ccc(CCCCCCCCCCc2nc3ccccc3[nH]2)cc1 [STL442376] | 640 | 640 |  |  |  |  |  |  |  |  |  |  |  |  |  |  |  |  | 5.61 |  | Screen "Hit" (L1 wild-type C. elegans [2]; [10]): Y (hits were identified as compounds that reduced relative motility below 0.25 (75% reduction)); CC50 at 2 days (in vitro; [11]): < 6.25 µM
